For eight molecules, IC50 results are on record in PMC6259569, “Pancreatic Lipase Inhibition by C-Glycosidic Flavones Isolated from Eremochloa ophiuroides” (Molecules, 2010).

The assay concerns the target T1, porcine pancreatic lipase (Sus scrofa, UniProt P00591).
T1 construct: purchased Sigma, St. Louis, MO
T1 sequence (P00591 1-450): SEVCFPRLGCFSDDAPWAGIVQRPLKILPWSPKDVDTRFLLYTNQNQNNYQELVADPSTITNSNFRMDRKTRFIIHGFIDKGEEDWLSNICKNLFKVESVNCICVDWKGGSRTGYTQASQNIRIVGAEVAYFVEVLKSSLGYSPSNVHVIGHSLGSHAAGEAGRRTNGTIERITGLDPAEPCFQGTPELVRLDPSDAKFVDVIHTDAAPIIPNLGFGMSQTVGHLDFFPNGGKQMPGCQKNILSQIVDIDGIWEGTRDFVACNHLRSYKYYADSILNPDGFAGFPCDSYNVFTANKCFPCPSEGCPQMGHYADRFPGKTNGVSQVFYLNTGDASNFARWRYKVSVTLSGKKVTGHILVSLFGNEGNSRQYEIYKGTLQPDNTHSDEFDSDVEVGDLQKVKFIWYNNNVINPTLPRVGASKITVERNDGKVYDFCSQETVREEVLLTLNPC
As to the kind of experiment: Pancreatic lipase inhibition assay (p-NPB hydrolysis, OD 405 nm). The following applies: substrate p-NPB, 37 °C, mean ± S.D. of quadruplicate experiments, read-out: IC50, pancreatic lipase inhibitory activity (concentration that caused a 50% reduction in enzyme activity). It is filed as biochemical. Here is the method:
The ability of the compounds to inhibit porcine pancreatic lipase was evaluated using previously reported methods with a minor modification. Briefly, an enzyme buffer was prepared by the addition of 30 μL (10 units) of a solution of porcine pancreatic lipase (Sigma, St. Louis, MO) in10 mM MOPS (morpholinepropanesulphonic acid), and 1 mM EDTA, pH 6.8 to 850 μL of Tris buffer (100 mM Tris-HC1 and 5 mM CaCl2, pH 7.0). […] Pancreatic lipase activity was determined by measuring the hydrolysis of p-NPB to p-nitrophenol at 405 nm using an ELISA reader (Tecan, Infinite F200, Austria). Inhibition of lipase activity was expressed as the percentage decrease in the OD when porcine pancreatic lipase was incubated with the test compounds.
On to `C[C@H]1O[C@@H](c2c(O)cc3oc(-c4ccc(O)c(O)c4)cc(=O)c3c2O)C[C@H](O)[C@H]1O` [Compound 1, luteolin 6-C-β-D-boivinopyranoside], for which the IC50 was 50.5 ± 3.9 µM.

As for `O=c1cc(-c2ccc(O)c(O)c2)oc2c([C@@H]3O[C@H](CO)[C@@H](O)[C@H](O)[C@H]3O)c(O)cc(O)c12` [Compound 2, orientin], the IC50 was 31.6 ± 2.7 µM.

For the molecule `O=c1cc(-c2ccc(O)c(O)c2)oc2cc(O)c([C@@H]3O[C@H](CO)[C@@H](O)[C@H](O)[C@H]3O)c(O)c12` [Compound 3, isoorientin], the IC50 worked out at 44.6 ± 1.3 µM.

As for `CC1OC(OC2C(c3c(O)cc4oc(-c5ccc(O)c(O)c5)cc(=O)c4c3O)OC(CO)C(O)C2O)C(O)C(O)C1O` [Compound 5, isoorientin 2-O-α-L-rhamnoside], the IC50 is 18.5 ± 2.6 µM.

Regarding `O=c1cc(-c2ccc(O)c(O)c2)oc2cc(O)cc(O)c12` [Compound 6, luteolin], the IC50 was above 200 µM.

On to `O=C(/C=C/c1ccc(O)c(O)c1)O[C@@H]1C[C@](O)(C(=O)O)C[C@@H](O)[C@H]1O` [Compound 7, chlorogenic acid], for which the IC50 was above 200 µM.

As to `COC(=O)[C@]1(O)C[C@@H](O)[C@@H](O)[C@H](OC(=O)/C=C/c2ccc(O)c(O)c2)C1` [Compound 8, methyl chlorogenate], the IC50 is 33.6 ± 2 µM.

For `O=C(O)/C=C/c1ccc(O)c(O)c1` [Compound 9, caffeic acid], the IC50 is above 200 µM.
